# Measurements taken from patent US20250324971A1, “HERBICIDAL DERIVATIVES” (SYNGENTA CROP PROTECTION AG, priority 2022, published 2025).
# Tests used:
# Format in all cases: in vivo
# [1] = test system: Zea mays (ZEAMX); test: Pre-Emergence Test (herbicidal, glasshouse pots); details: evaluated after 13 days, five-point scale
# [2] = test system: Echinochloa crus-galli (ECHCG); test: Pre-Emergence Test (herbicidal, glasshouse pots); details: evaluated after 13 days, five-point scale
# [3] = test system: Setaria faberi (SETFA); test: Pre-Emergence Test (herbicidal, glasshouse pots); details: evaluated after 13 days, five-point scale
# [4] = test system: Amaranthus retoflexus (AMARE); test: Pre-Emergence Test (herbicidal, glasshouse pots); details: evaluated after 13 days, five-point scale
# [5] = test system: Ipomoea hederacea (IPOHE); test: Pre-Emergence Test (herbicidal, glasshouse pots); details: evaluated after 13 days, five-point scale
# [6] = test system: Amaranthus palmeri (AMAPA); test: Pre-Emergence Test (herbicidal, glasshouse pots); details: evaluated after 13 days, five-point scale
# [7] = test system: Amaranthus palmeri (AMAPA); test: Post-Emergence Test (herbicidal, glasshouse pots); details: evaluated after 13 days
# Outline: (§1)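 Damage after 13 days is given as a five-point score, where 5 means 81-100% and 1 means 0-20% injury. Seed-sown pots were treated by spray with the technical ingredient in aqueous acetone (50:50) with 0.5% Tween 20, dose expressed in g/ha.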
# [8] = test system: Amaranthus retoflexus (AMARE); test: Post-Emergence Test (herbicidal, glasshouse pots); details: evaluated after 13 days
# Outline: as §1
# [9] = test system: Setaria faberi (SETFA); test: Post-Emergence Test (herbicidal, glasshouse pots); details: evaluated after 13 days
# Outline: as §1
# [10] = test system: Ipomoea hederacea (IPOHE); test: Post-Emergence Test (herbicidal, glasshouse pots); details: evaluated after 13 days
# Outline: as §1
# [11] = test system: Echinochloa crus-galli (ECHCG); test: Post-Emergence Test (herbicidal, glasshouse pots); details: evaluated after 13 days
# Outline: as §1
# [12] = test system: Zea mays (ZEAMX); test: Post-Emergence Test (herbicidal, glasshouse pots); details: evaluated after 13 days
# Outline: as §1
Compound,"percentage damage caused to the plant, ZEAMX ([1]; rate 250 g/ha)","percentage damage caused to the plant, ECHCG ([2]; rate 250 g/ha)","percentage damage caused to the plant, SETFA ([3]; rate 250 g/ha)","percentage damage caused to the plant, AMARE ([4]; rate 250 g/ha)","percentage damage caused to the plant, IPHOE ([5]; rate 250 g/ha)","percentage damage caused to the plant, AMAPA ([6]; rate 250 g/ha)",Post-Emergence Test AMAPA percentage damage (five-point scale) ([7]; rate 250 g/ha),Post-Emergence Test AMARE percentage damage (five-point scale) ([8]; rate 250 g/ha),Post-Emergence Test SETFA percentage damage (five-point scale) ([9]; rate 250 g/ha),Post-Emergence Test IPHOE percentage damage (five-point scale) ([10]; rate 250 g/ha),Post-Emergence Test ECHCG percentage damage (five-point scale) ([11]; rate 250 g/ha),Post-Emergence Test ZEAMX percentage damage (five-point scale) ([12]; rate 250 g/ha),further results
"CCn1c(Oc2cnsn2)cc(=O)c(C(=O)O)c1-c1ccc(Cl)c(Cl)c1 [Compound 43, 2-(3,4-dichlorophenyl)-1-ethyl-4-oxo-6-(1,2,5-thiadiazol-3-yloxy)pyridine-3-carboxylic acid]",0,1 (1=0-20%),1 (1=0-20%),1 (1=0-20%),3 (3=41-60%),0,2 (2=21-40%),1 (1=0-20%),2 (2=21-40%),4 (4=61-80%),2 (2=21-40%),0,–
"CCn1c(Oc2ccc(F)nc2)cc(=O)c(C(=O)O)c1-c1ccc(Cl)c(Cl)c1 [Compound 52, 2-(3,4-dichlorophenyl)-1-ethyl-6-[(6-fluoro-3-pyridyl)oxy]-4-oxo-pyridine-3-carboxylic acid]",5 (5=81-100%),4 (4=61-80%),5 (5=81-100%),3 (3=41-60%),3 (3=41-60%),2 (2=21-40%),1 (1=0-20%),4 (4=61-80%),4 (4=61-80%),4 (4=61-80%),4 (4=61-80%),4 (4=61-80%),–
"CCn1ccc(Oc2cc(=O)c(C(=O)O)c(-c3ccc(Cl)c(Cl)c3)n2CC)n1 [Compound 57, 2-(3,4-dichlorophenyl)-1-ethyl-6-(1-ethylpyrazol-3-yl)oxy-4-oxo-pyridine-3-carboxylic acid]",5 (5=81-100%),4 (4=61-80%),5 (5=81-100%),4 (4=61-80%),4 (4=61-80%),3 (3=41-60%),4 (4=61-80%),4 (4=61-80%),4 (4=61-80%),4 (4=61-80%),4 (4=61-80%),4 (4=61-80%),–
CCn1c(Oc2ccc(F)c(F)c2)cc(=O)c(C(=O)O)c1-c1ccc(C#N)c(Cl)c1 [Compound 76],5 (5=81-100%),4 (4=61-80%),5 (5=81-100%),2 (2=21-40%),1 (1=0-20%),2 (2=21-40%),3 (3=41-60%),4 (4=61-80%),4 (4=61-80%),4 (4=61-80%),3 (3=41-60%),4 (4=61-80%),–
"CCc1cc(Oc2cc(=O)c(C(=O)O)c(-c3ccc(Cl)c(Cl)c3)n2CC)no1 [Compound 39, 2-(3,4-dichlorophenyl)-1-ethyl-6-(5-ethylisoxazol-3-yl)oxy-4-oxo-pyridine-3-carboxylic acid]",0,1 (1=0-20%),1 (1=0-20%),1 (1=0-20%),1 (1=0-20%),1 (1=0-20%),1 (1=0-20%),1 (1=0-20%),1 (1=0-20%),2 (2=21-40%),1 (1=0-20%),0,–
"CCn1c(Oc2cc(C(F)F)n(C)n2)cc(=O)c(C(=O)O)c1-c1ccc(Cl)c(Cl)c1 [Compound 56, 2-(3,4-dichlorophenyl)-6-[5-(difluoromethyl)-1-methyl-pyrazol-3-yl]oxy-1-ethyl-4-oxo-pyridine-3-carboxylic acid]",–,–,–,–,–,–,–,–,–,–,–,–,"percentage damage caused to the plant, ZEAMX ([1]; rate 62.5 g/ha): 0; percentage damage caused to the plant, ECHCG ([2]; rate 62.5 g/ha): 0; percentage damage caused to the plant, SETFA ([3]; rate 62.5 g/ha): 1 (1=0-20%); percentage damage caused to the plant, AMARE ([4]; rate 62.5 g/ha): 0; percentage damage caused to the plant, IPHOE ([5]; rate 62.5 g/ha): 0; percentage damage caused to the plant, AMAPA ([6]; rate 62.5 g/ha): 0; Post-Emergence Test AMAPA percentage damage (five-point scale) ([7]; rate 62.5 g/ha): 3 (3=41-60%); Post-Emergence Test AMARE percentage damage (five-point scale) ([8]; rate 62.5 g/ha): 2 (2=21-40%); Post-Emergence Test SETFA percentage damage (five-point scale) ([9]; rate 62.5 g/ha): 3 (3=41-60%); Post-Emergence Test IPHOE percentage damage (five-point scale) ([10]; rate 62.5 g/ha): 3 (3=41-60%); Post-Emergence Test ECHCG percentage damage (five-point scale) ([11]; rate 62.5 g/ha): 2 (2=21-40%); Post-Emergence Test ZEAMX percentage damage (five-point scale) ([12]; rate 62.5 g/ha): 0"
"CCn1c(OC2CC2)cc(=O)c(C(=O)O)c1-c1ccc(Cl)c(Cl)c1 [Compound 45, 6-(cyclopropoxy)-2-(3,4-dichlorophenyl)-1-ethyl-4-oxo-pyridine-3-carboxylic acid]",0,0,1 (1=0-20%),2 (2=21-40%),0,1 (1=0-20%),2 (2=21-40%),1 (1=0-20%),3 (3=41-60%),3 (3=41-60%),2 (2=21-40%),1 (1=0-20%),–
